We go through one compound from patent US20040236110A1, “Substituted 3-pyridyl indoles and indazoles as c17,20 lyase inhibitors” (priority 2001, published 2004).

Usually melting point stands for the temperature of the solid-liquid transition. With `N#Cc1ccccc1-n1ccc2cc(-c3cccnc3)ccc21` [Example 58, 1-(2-Cyanophenyl)-5-(3-pyridyl)-1H-indole], the melting point was in the range of 138 to 141 °C.
